Measured values published in PubChem BioAssay AID248 (DTP/NCI, 2004).
Inconclusive results and toxic doses are left out. Cut-off read from the data, not from the text of the source: active = T/C of 150% or more; inactive = T/C below 125%.

Test system: L1210 leukemia ip in BDF1 mice, survival T/C
Assay: NCI In Vivo Anticancer Drug Screen. Data for tumor model L1210 Leukemia (intraperitoneal) in B6D2F1 (BDF1) mice
Settings: endpoint: mean survival time, higher = longer survival
In short: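 Tumor cells were implanted, animals were treated, and survival was followed. The result divides the treated measurement by the vehicle-control measurement.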

[1] = dose: 100.0 mg/kg/injection, schedule: Q01DX009 (ip), vehicle: saline
[2] = dose: 100.0 mg/kg/injection, schedule: Q04DX003 (ip), vehicle: saline
[3] = dose: 200.0 mg/kg/injection, schedule: Q04DX003 (ip), vehicle: saline
[4] = dose: 400.0 mg/kg/injection, schedule: Q04DX003 (ip), vehicle: saline
[5] = dose: 100.0 mg/kg/injection, schedule: Q04DX003 (ip), vehicle: Klucel (hydroxypropylcellulose) (HPC)
[6] = dose: 200.0 mg/kg/injection, schedule: Q04DX003 (ip), vehicle: Klucel (hydroxypropylcellulose) (HPC)
[7] = dose: 400.0 mg/kg/injection, schedule: Q04DX003 (ip), vehicle: Klucel (hydroxypropylcellulose) (HPC)
[8] = dose: 25.0 mg/kg/injection, schedule: Q04DX002 (ip), vehicle: DMSO
[9] = dose: 100.0 mg/kg/injection, schedule: Q01DX009 (ip), vehicle: Klucel (hydroxypropylcellulose) (HPC)
[10] = dose: 200.0 mg/kg/injection, schedule: Q01DX009 (ip), vehicle: Klucel (hydroxypropylcellulose) (HPC)
[11] = dose: 400.0 mg/kg/injection, schedule: Q01DX009 (ip), vehicle: Klucel (hydroxypropylcellulose) (HPC)
[12] = dose: 100.0 mg/kg/injection, schedule: Q04DX003 (ip), vehicle: saline with Tween-80
[13] = dose: 200.0 mg/kg/injection, schedule: Q04DX003 (ip), vehicle: saline with Tween-80
[14] = dose: 400.0 mg/kg/injection, schedule: Q04DX003 (ip), vehicle: saline with Tween-80
[15] = dose: 100.0 mg/kg/injection, schedule: Q01DX001 (ip), vehicle: saline with Tween-80
[16] = dose: 200.0 mg/kg/injection, schedule: Q01DX001 (ip), vehicle: saline with Tween-80
[17] = dose: 400.0 mg/kg/injection, schedule: Q01DX001 (ip), vehicle: saline with Tween-80
[18] = dose: 100.0 mg/kg/injection, schedule: Q01DX001 (ip), vehicle: saline
[19] = dose: 200.0 mg/kg/injection, schedule: Q01DX001 (ip), vehicle: saline
[20] = dose: 400.0 mg/kg/injection, schedule: Q01DX001 (ip), vehicle: saline

Measured: T/C

COc1ccc(N=C2OC(=O)c3ccccc32)cc1
inactive: [1] 91 % of control | [2] 94 % of control | dose: 200.0 mg/kg/injection, schedule: Q01DX009 (ip), vehicle: saline 100 % of control | [3] 103 % of control | dose: 400.0 mg/kg/injection, schedule: Q01DX009 (ip), vehicle: saline 89 % of control | [4] 92 % of control

[N-]=[N+]=CS(=O)(=O)c1ccccc1-c1ccccc1
inactive: [5] 104 % of control | [6] 103 % of control | [7] 95 % of control

CC12CCCCC1CC(=O)/C(=C\O)C2 (stereo not drawn)
inactive: [8] 94 % of control | dose: 50.0 mg/kg/injection, schedule: Q04DX002 (ip), vehicle: DMSO 90 % of control

O=C(O)CCC(=O)Nc1ccc(F)cc1
inactive: [9] 103 % of control | [10] 93 % of control | [11] 93 % of control

O=C(Nc1ccccc1)C1C2C=CC(CC2)C1C(=O)Nc1ccccc1 (stereo not drawn)
inactive: [12] 98 % of control | [13] 107 % of control | [14] 98 % of control

CC(CCc1ccccc1)NC(C)C(O)c1ccc(O)cc1 (stereo not drawn)
inactive: dose: 6.25 mg/kg/injection, schedule: Q01DX009 (ip), vehicle: saline 101 % of control | dose: 12.5 mg/kg/injection, schedule: Q01DX009 (ip), vehicle: saline 104 % of control | dose: 12.5 mg/kg/injection, schedule: Q04DX003 (ip), vehicle: saline 94 % of control | dose: 25.0 mg/kg/injection, schedule: Q01DX009 (ip), vehicle: saline 98 % of control | dose: 25.0 mg/kg/injection, schedule: Q04DX003 (ip), vehicle: saline 102 % of control | dose: 50.0 mg/kg/injection, schedule: Q01DX009 (ip), vehicle: saline 97 % of control | dose: 50.0 mg/kg/injection, schedule: Q04DX003 (ip), vehicle: saline 94 % of control | [1] 97 % of control | [2] 89 % of control

OCCCN=Cc1ccccc1O.OCCCN=Cc1ccccc1O.[Cu]
inactive: dose: 9.5 mg/kg/injection, schedule: Q01DX001 (ip), vehicle: other 92 % of control | dose: 19.0 mg/kg/injection, schedule: Q01DX001 (ip), vehicle: other 97 % of control | dose: 38.0 mg/kg/injection, schedule: Q01DX001 (ip), vehicle: other 100 % of control | dose: 75.0 mg/kg/injection, schedule: Q01DX001 (ip), vehicle: other 114 % of control

Nc1nc(N)c(-c2ccc(Cl)c(Cl)c2)c(CCc2ccc(NS(=O)(=O)c3cccc(S(=O)(=O)F)c3)cc2)n1
inactive: [15] 98 % of control | [16] 95 % of control | [17] 87 % of control

O=c1cc(CNC23CC4CC(CC(C4)C2)C3)[nH]c(=O)[nH]1
inactive: [12] 96 % of control | [13] 96 % of control | [14] 89 % of control

COCC(O)C(OC)C(OC)C(C=O)NC(=O)N(CCCl)N=O (stereo not drawn)
active: dose: 14.0 mg/kg/injection, schedule: Q01DX001 (ip), vehicle: saline with Tween-80 159 % of control | dose: 22.0 mg/kg/injection, schedule: Q01DX001 (ip), vehicle: saline with Tween-80 181 % of control | dose: 33.5 mg/kg/injection, schedule: Q01DX001 (ip), vehicle: saline with Tween-80 331 % of control | dose: 50.0 mg/kg/injection, schedule: Q01DX001 (ip), vehicle: saline with Tween-80 431 % of control | dose: 75.0 mg/kg/injection, schedule: Q01DX001 (ip), vehicle: saline with Tween-80 489 % of control | dose: 112.0 mg/kg/injection, schedule: Q01DX001 (ip), vehicle: saline with Tween-80 227 % of control

CCOC(=O)NC1CC1
inactive: [18] 93 % of control | [19] 95 % of control | [20] 101 % of control

Cc1ccc(O)cn1
inactive: [12] 100 % of control | [13] 96 % of control | [14] 103 % of control

c1ccc(C2=C(c3ccccc3)C23SCCS3)cc1
inactive: [9] 101 % of control | [5] 94 % of control | [10] 97 % of control | [6] 100 % of control | [11] 98 % of control | [7] 96 % of control

CSc1ccccc1/C=C(/C(=O)O)c1ccccc1O
inactive: [15] 103 % of control | [16] 97 % of control | [17] 103 % of control

O=C1C(Br)=CC(=NCl)C=C1Br
inactive: dose: 6.25 mg/kg/injection, schedule: Q01DX009 (ip), vehicle: DMSO 87 % of control | dose: 12.5 mg/kg/injection, schedule: Q01DX009 (ip), vehicle: DMSO 94 % of control | dose: 12.5 mg/kg/injection, schedule: Q04DX002 (ip), vehicle: DMSO 103 % of control | [8] 95 % of control

COc1ccc(NNP(=O)(CCl)N(CCCl)CCCl)cc1 (stereo not drawn)
inactive: dose: 100.0 mg/kg/injection, schedule: Q01DX001 (ip), vehicle: Klucel (hydroxypropylcellulose) (HPC) 104 % of control | dose: 200.0 mg/kg/injection, schedule: Q01DX001 (ip), vehicle: Klucel (hydroxypropylcellulose) (HPC) 108 % of control | dose: 400.0 mg/kg/injection, schedule: Q01DX001 (ip), vehicle: Klucel (hydroxypropylcellulose) (HPC) 108 % of control

O=C(NC(=S)Nc1ccccc1C(=O)O)c1ccccc1
inactive: dose: 50.0 mg/kg/injection, schedule: Q01DX009 (ip), vehicle: saline sonified 96 % of control | dose: 100.0 mg/kg/injection, schedule: Q04DX003 (ip), vehicle: saline sonified 95 % of control | dose: 200.0 mg/kg/injection, schedule: Q01DX009 (ip), vehicle: saline sonified 94 % of control | dose: 200.0 mg/kg/injection, schedule: Q04DX003 (ip), vehicle: saline sonified 95 % of control

NCCOP(=O)(O)OCC1OC(n2cnc3c(N)ncnc32)C(O)C1O (stereo not drawn)
inactive: dose: 100.0 mg/kg/injection, schedule: Q01DX005 (ip), vehicle: saline 92 % of control | dose: 200.0 mg/kg/injection, schedule: Q01DX005 (ip), vehicle: saline 92 % of control

O=C(O)c1cccc(C(=O)c2ccc([N+](=O)[O-])cc2)c1
inactive: [18] 97 % of control | [2] 90 % of control | [19] 99 % of control | [3] 102 % of control | [20] 96 % of control | [4] 90 % of control

Cc1ccc(Nc2cc(=O)[nH]c(N)n2)cc1C
inactive: dose: 100.0 mg/kg/injection, schedule: Q01DX Z (ip), vehicle: methylcellulose (MC) 95 % of control | dose: 200.0 mg/kg/injection, schedule: Q01DX Z (ip), vehicle: methylcellulose (MC) 95 % of control
